Data published in patent US9925134B2, “Use of substances to protect FGF-2 or FGF-beta growth factor” (BASF Beauty Care Solutions France SAS, priority 2007, dated 2018).
One block for each molecule: values may come before it.

Columns and labels:
normal human fibroblasts [1] = test: Stimulation of collagen synthesis, 3H-proline incorporation; format: cell-based; conditions: Vitamin C 20 μg/ml; 48 hrs
Protocol: A control was made in parallel with medium only. After 24 hrs of contact, radioactive […]-proline) is added to the medium. At the end of the experiment, the supernatants are collected for dosing the incorporation of radioactive […] into the intracellular proteins.

[2] = tested on: normal human dermal fibroblasts; test: Fibroblast proliferation by FGF-2 protected by heparin or extract 5c (PNPP); format: cell-based; conditions: for Proliferation (expressed as percent relative to the non-treated well): 48 hrs, heparin 0.01% during 24 hrs at 37° C.
Protocol: A solution of FGF-2 is prepared extemporaneously (=non-degraded FGF-2); a solution of FGF-2 is placed for 24 hrse at 37° C. in the absence (=degraded FGF-2) and in the presence of heparin (=FGF-2+heparin at 37° C.) at 0.01%.
Each FGF-2 solution is diluted so as to be applied on the cells, the final FGF-2 concentrations being the following: 0.1, 0.25, 0.5, 0.75 and 1 ng/ml.
Normal human dermal fibroblasts were sown at low density in 6-well plates. They were then grown in a medium in the absence (control) or in the presence of FGF-2 at various concentrations.
After 48 hrs, the activity of intracellular acid phosphatases (PNPP) is dosed, so as to be able to evaluate the effect of FGF-2 solutions, either treated or not, on cell proliferation.
The results are expressed as a proliferation percentage relative to the control well i.e. to the non-treated well.
The same experiment was conducted by replacing heparin with extract 5c. The FGF-2 solution put into the presence of 0.5% of extract 5c is placed for 24 hrs at 37° C. The solution is then diluted so as to apply 0.5 ng/ml of FGF-2 in the wells containing the fibroblasts.
The 5c extract concentration finally applied on the cells is 0.0025%. It was checked beforehand that this 5c extract concentration was not capable of inducing stimulation of the proliferation of fibroblasts. This means that the observed stimulation of proliferation is actually due to the protection of FGF-2 by extract 5c (see Table 8).

normal human fibroblasts [3] = test: Stimulation of synthesis of total GAGs, radioactive glucosamine incorporation; format: cell-based; conditions: TGF-β 10 ng/ml; 72 hrs
Protocol: (§1) Normal human fibroblasts stemming from a donor, were grown in 96-well plates with medium (consisting of DMEM, glutamine 2 mM, penicillin 50 IU/ml-streptomycin 50 μg/ml, 10% fetal calf serum) for 24 hrs. […] A control was made in parallel with the medium only.
After 48 hrs of contact, radioactive glucosamine (D-(6-^3H)-glucosamine) is added to the medium.
(§2) At the end of the experiment, the supernatants are collected for dosing the incorporation of radioactive glucosamine into the intracellular proteins. Dosage of the proteins is performed with a commercial kit (BioRad 500-0116).

normal human fibroblasts [4] = test: Stimulation of synthesis of sulfated GAGs, 35S-sulfate incorporation; format: cell-based; conditions: TGF-β 10 ng/ml
Protocol: as §1, §2
In the same way, a study of the incorporation of ^35S-sulfate is conducted for quantifying the sulfated GAGs. The applied procedure is the same as that for the total GAGs, except for the nature of the radioactive precursor.

FGF-2 [5] = biological target: T1, FGF-2 (Homo sapiens, UniProt P09038); test: Protection of FGF-2 against thermal degradation, stress of 2.15 hrs at 45° C., FGF-2 dosed by ELISA kit; format: biochemical; conditions: for FGF-2 protection by GAGs and proteoglycans of the skin (in words): solutions at 0.1%
Protocol: Degradation of FGF-2 observed at about 50° C. is particularly interesting, because a short period of time allows degradation of FGF-2 of about 80%, thereby allowing a large number of tests to be conducted. For this reason, it was decided to achieve screening with a stress of 2.15 hrs at 45° C. and to study the capacity of a large number of actives for protecting FGF-2 against this thermal degradation.
The applied screening model is the following: • 180 μl of a 4.5 ng/ml FGF-2 solution prepared in 0.1% BSA/PBS buffer are distributed in a 96-well microplate. 20 μl of distilled water or 0.05% heparin or a solution containing various active ingredients extracted from different plants to be tested are added. The plate is stirred by means of a plate stirrer and then covered with adhesive tape and placed in an oven at 45° C. for 2.15 hrs. At the end of the incubation period, the plate is taken out and dosage of FGF-2 is then carried out by means of the ELISA kit.
A control plate only containing FGF-2 and distilled water, treated under the same conditions, is left at room temperature.
The results are expressed as a FGF-2 protection percentage relatively to the non-stressed or non-degraded FGF-2 control.
The stress protocol described in Example 2 was applied, 20 μl of water being substituted with 20 μl of corresponding GAG or PG solution. The tested GAGs and PGs thereby undergo additional dilution to 1/10. […]
Target sequence in this assay (P09038 143-288): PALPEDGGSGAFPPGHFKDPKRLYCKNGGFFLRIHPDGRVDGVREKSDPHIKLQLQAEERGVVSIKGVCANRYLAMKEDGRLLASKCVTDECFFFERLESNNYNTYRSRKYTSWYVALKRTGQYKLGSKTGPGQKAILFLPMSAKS

FGF-2 [6] = biological target: T1, FGF-2; conditions: cited from earlier work
Target sequence in this assay (P09038 134-288 limits assumed): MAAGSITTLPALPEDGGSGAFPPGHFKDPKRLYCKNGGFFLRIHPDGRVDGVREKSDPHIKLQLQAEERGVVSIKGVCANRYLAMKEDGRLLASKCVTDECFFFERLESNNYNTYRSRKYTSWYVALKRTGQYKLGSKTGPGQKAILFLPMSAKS

FGF-2 [7] = biological target: T1, FGF-2; conditions: pH 2 and pH 9 versus neutral pH; cited from earlier work
Target sequence in this assay (P09038 134-288 limits assumed): as above

FGF-2 [8] = biological target: T1, FGF-2; conditions: 3 hours of incubation at 37° C.; cited from earlier work
Target sequence in this assay (P09038 134-288 limits assumed): as above

FGF-2 [9] = biological target: T1, FGF-2; test: Study of thermal degradation (stability) of FGF-2 at various temperatures with or without heparin, ELISA; format: physicochemical; conditions: 0.05% heparin
Protocol: A 5 ng/ml solution of FGF-2 in a 10 mM PBS buffer with 0.1% BSA and 0.1% of methylparaben is prepared.
This solution is placed at various temperatures: 4° C., 20° C., 37° C., 50° C., and 80° C. either in the presence of heparin or not at 500 μg/ml.
Dosages of FGF-2 with a commercial ELISA kit (R&D system, France) are performed at different times (T=0, 3 hrs, 24 hrs and 48 hrs) so as to establish degradation kinetics for each temperature of investigation.
The results are expressed as a percentage of FGF-2 relative to time T=0. The experiments are conducted in triplicates (n=3). The obtained results are illustrated in FIGS. 1 and 2.
Target sequence in this assay (P09038 143-288): as the sequence (P09038 143-288) above

FGF-2 [10] = biological target: T1, FGF-2; test: Protection of FGF-2 at physiological temperature, FGF-2 dosed after 24 hrs at 37° C.; format: biochemical; conditions: 0.01% heparin
Protocol: It was absolutely necessary to check whether the extract 5c was able to protect FGF-2 at a physiological temperature, i.e., 37° C. This is why an investigation consisted of dosing FGF-2 after 24 hrs at 37° C. in the absence or in the presence of increasing concentrations of extract 5c.
Target sequence in this assay (P09038 143-288): as above

[11] = 0.01%, 0.001%, further diluted 1/10, 45° C. 2.15 hrs

Molecule: O=C1O[C@H]([C@@H](O)CO)C(O)=C1O [Vitamin C, vitamin C]
- % control (collagen synthesis) (normal human fibroblasts [1]): 170%
- cpm (3H-proline incorporation) (normal human fibroblasts [1]): 10185 cpm

Molecule: Degraded FGF-2: solution of FGF-2 placed for 24 hrs at 37° C. in the absence of heparin
- Proliferation (as a percentage) of fibroblasts relative to the non-treated control ([2]; FGF-2 0.5 ng/ml, 0.5% 5c extract during 24 hrs at 37° C. (0.0025% on the cells)): 123.7% ± 0.005
- Proliferation (expressed as percent relative to the non-treated well) ([2]; FGF-2 concentration 0.1 ng/ml): 96.2 ± 0.014%
- Proliferation (expressed as percent relative to the non-treated well) ([2]; FGF-2 concentration 0.25 ng/ml): 111 ± 0.006%
- Proliferation (expressed as percent relative to the non-treated well) ([2]; FGF-2 concentration 0.5 ng/ml): 123.7 ± 0.005%
- Proliferation (expressed as percent relative to the non-treated well) ([2]; FGF-2 concentration 0.75 ng/ml): 132.5 ± 0.004%
- Proliferation (expressed as percent relative to the non-treated well) ([2]; FGF-2 concentration 1 ng/ml): 146.4 ± 0.01%

Molecule: TGF-β
- % control, total GAGs (normal human fibroblasts [3]): 240%
- Activity (cpm), total GAGs (normal human fibroblasts [3]): 2590 cpm
- Ratio (act./Prot.), total GAGs (normal human fibroblasts [3]): 709
- % control, sulfated GAGs (normal human fibroblasts [4]): 176%
- Activity (cpm), sulfated GAGs (normal human fibroblasts [4]): 5442 cpm
- Ratio (act./Prot.), sulfated GAGs (normal human fibroblasts [4]): 1491

- FGF-2 protection by GAGs of the skin (FGF-2 [5]; chondroitin sulfate solutions at 0.1%, 0.01%, 0.001%, further diluted 1/10, 45° C. 2.15 hrs): < 100%
- FGF-2 protection by GAGs and proteoglycans of the skin (in words) (FGF-2 [5]; [11]): depends on its dose
Molecule: chondroitin sulfate

- FGF-2 protection by GAGs and proteoglycans of the skin (in words) (FGF-2 [5]; [11]): protects FGF-2
Molecule: dermatan sulfate

- FGF-2 protection by GAGs and proteoglycans of the skin (in words) (FGF-2 [5]; [11]): protects FGF-2
Molecule: heparan sulfate [Heparin sulfate]

- Protection of FGF-2, positive control (FGF-2 [5]; 0.01% heparin in the final reaction medium, 45° C. stress of Example 2): 105.52%±3.04
- Protection of FGF-2 by heparin (in words) (FGF-2 [9]; 80° C.): not effective
- Stability of FGF-2 in the presence of heparin (in words) (FGF-2 [9]; various temperatures): degradation is stopped
- Protection of FGF-2, positive control (FGF-2 [10]): 110.53%±3.20
Molecule: heparin
- Protection of the activity of FGF-2 by heparin (in words) (FGF-2 [6]; 0° C., 20° C., 37° C., 1 hr to 60 days): provides protection of the activity of FGF-2 over time
- Activity of FGF-2 in the presence of heparin (in words) (FGF-2 [6]; 60° C. and 90° C.): no activity is detected
- Proliferation with FGF-2 protected by heparin (in words) ([2]; heparin 0.01%, up to 0.5 ng/ml FGF-2): proliferation is maintained
- Activity of FGF-2 at acid and basic pH in the presence of heparin (in words) (FGF-2 [7]): retain a similar (or even slightly weaker) activity of FGF-2
- Protection of FGF-2 against trypsin and chymotripsin (in words) (FGF-2 [8]): total protection of FGF-2

- FGF-2 protection by GAGs and proteoglycans of the skin (in words) (FGF-2 [5]; [11]): by no means allows FGF-2 to be protected
Molecule: hyaluronic acid [Hyaluronan]

- FGF-2 protection by GAGs and proteoglycans of the skin (in words) (FGF-2 [5]; [11]): inefficient
B1: decorin: proteoglycan consisting of chondroitin sulfate and dermatan sulfate chains (protein, UniProt P07585 31-359, looked up)
Decorin: DEASGIGPEVPDDRDFEPSLGPVCPFRCQCHLRVVQCSDLGLDKVPKDLPPDTTLLDLQNNKITEIKDGDFKNLKNLHALILVNNKISKVSPGAFTPLVKLERLYLSKNQLKELPEKMPKTLQELRAHENEITKVRKVTFNGLNQMIVIELGTNPLKSSGIENGAFQGMKKLSYIRIADTNITSIPQGLPPSLTELHLDGNKISRVDAASLKGLNNLAKLGLSFNSISAVDNGSLANTPHLRELHLDNNKLTRVPGGLAEHKYIQVVYLHNNNISVVGSSDFCPPGHNTKKASYSGVSLFSNPVQYWEIQPSTFRCVYVRSAIQLGNYK
